Assays:
[1] = molecular target: Adenosine receptor A2a (Homo sapiens, UniProt P29274)
[2] = molecular target: Beta-2 adrenergic receptor (Homo sapiens, UniProt P07550); assay type: functional, cell-based
[3] = molecular target: T1, Alpha-1A adrenergic receptor (Homo sapiens, UniProt P35348); assay type: functional, cell-based
T1 sequence (P35348 whole entry): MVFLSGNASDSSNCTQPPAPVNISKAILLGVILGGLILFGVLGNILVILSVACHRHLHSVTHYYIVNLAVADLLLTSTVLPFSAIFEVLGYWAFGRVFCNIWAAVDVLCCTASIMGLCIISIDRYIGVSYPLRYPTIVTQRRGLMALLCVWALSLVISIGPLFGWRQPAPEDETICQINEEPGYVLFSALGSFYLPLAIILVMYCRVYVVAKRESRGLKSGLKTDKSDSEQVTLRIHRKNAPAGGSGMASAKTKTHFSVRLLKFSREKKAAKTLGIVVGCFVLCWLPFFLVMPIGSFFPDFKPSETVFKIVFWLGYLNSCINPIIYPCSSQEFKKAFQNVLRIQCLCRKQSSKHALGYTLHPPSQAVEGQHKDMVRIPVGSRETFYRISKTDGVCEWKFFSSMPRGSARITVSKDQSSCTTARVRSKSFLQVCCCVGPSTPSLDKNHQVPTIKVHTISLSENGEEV

[4] = molecular target: 5-hydroxytryptamine receptor 2B (Homo sapiens, UniProt P41595); assay type: functional, cell-based
5-hydroxytryptamine receptor 2B, sequence (P41595 whole entry): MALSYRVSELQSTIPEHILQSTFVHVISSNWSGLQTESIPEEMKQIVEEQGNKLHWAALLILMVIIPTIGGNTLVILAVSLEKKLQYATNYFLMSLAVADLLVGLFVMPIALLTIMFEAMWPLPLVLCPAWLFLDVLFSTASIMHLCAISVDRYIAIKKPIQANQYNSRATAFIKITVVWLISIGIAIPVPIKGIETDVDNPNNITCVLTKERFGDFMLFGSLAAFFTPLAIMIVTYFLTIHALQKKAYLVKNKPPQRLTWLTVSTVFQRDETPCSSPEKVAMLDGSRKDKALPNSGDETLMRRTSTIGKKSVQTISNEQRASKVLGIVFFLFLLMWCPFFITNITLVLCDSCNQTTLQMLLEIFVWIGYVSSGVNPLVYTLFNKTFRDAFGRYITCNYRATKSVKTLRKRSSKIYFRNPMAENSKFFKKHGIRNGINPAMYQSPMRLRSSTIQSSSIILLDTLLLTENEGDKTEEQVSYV

[5] = molecular target: cGMP-inhibited 3',5'-cyclic phosphodiesterase 3A (Homo sapiens, UniProt Q14432); assay type: functional
cGMP-inhibited 3',5'-cyclic phosphodiesterase 3A, sequence (Q14432 whole entry): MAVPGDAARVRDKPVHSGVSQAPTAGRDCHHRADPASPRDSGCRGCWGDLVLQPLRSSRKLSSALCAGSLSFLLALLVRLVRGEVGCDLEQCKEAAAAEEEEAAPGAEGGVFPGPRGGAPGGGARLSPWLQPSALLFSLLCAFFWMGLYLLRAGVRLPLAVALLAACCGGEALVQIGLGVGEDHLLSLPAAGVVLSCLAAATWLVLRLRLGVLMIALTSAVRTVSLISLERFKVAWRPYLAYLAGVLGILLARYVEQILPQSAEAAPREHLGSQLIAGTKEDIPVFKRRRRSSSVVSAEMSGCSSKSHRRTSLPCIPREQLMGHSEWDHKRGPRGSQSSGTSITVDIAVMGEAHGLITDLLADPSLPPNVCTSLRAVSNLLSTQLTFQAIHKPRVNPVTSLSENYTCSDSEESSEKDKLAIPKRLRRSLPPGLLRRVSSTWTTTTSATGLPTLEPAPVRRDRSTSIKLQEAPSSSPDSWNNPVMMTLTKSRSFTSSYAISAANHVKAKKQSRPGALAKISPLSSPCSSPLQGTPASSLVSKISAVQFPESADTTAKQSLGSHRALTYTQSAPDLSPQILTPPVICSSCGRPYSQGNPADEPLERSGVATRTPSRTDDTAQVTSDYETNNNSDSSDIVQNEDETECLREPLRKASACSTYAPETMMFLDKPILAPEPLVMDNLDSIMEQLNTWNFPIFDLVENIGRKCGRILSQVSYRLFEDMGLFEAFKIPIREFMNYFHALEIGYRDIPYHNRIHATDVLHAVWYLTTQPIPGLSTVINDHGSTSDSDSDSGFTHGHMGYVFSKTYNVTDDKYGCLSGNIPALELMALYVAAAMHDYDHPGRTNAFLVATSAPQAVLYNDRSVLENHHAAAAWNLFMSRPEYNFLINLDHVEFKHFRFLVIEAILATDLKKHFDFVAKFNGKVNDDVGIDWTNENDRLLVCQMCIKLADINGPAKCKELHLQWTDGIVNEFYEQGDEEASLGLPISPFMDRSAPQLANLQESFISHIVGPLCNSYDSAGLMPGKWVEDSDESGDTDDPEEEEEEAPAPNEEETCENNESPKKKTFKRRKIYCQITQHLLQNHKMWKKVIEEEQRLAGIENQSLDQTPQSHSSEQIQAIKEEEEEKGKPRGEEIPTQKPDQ

[6] = molecular target: Sodium-dependent dopamine transporter (Homo sapiens, UniProt Q01959)
Sodium-dependent dopamine transporter, sequence (Q01959 whole entry): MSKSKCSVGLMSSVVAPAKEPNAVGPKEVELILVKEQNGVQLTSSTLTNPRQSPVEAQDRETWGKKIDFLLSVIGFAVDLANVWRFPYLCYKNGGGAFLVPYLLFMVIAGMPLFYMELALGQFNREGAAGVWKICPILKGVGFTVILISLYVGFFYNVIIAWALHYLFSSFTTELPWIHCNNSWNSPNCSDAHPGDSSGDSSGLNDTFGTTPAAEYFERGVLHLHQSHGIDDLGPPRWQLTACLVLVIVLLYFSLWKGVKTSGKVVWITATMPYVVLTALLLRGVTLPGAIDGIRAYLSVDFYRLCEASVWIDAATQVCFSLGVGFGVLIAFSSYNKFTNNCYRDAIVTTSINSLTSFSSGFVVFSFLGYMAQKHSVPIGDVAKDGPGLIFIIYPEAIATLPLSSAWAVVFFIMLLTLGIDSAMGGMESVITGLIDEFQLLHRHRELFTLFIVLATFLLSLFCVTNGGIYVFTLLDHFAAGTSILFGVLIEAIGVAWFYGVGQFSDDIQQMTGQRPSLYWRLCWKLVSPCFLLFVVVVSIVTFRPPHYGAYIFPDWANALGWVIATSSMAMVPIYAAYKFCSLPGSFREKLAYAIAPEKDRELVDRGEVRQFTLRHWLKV

[7] = molecular target: T2, 5-hydroxytryptamine receptor 1A (Homo sapiens, UniProt P08908); assay type: functional, cell-based
T2 sequence (P08908 whole entry): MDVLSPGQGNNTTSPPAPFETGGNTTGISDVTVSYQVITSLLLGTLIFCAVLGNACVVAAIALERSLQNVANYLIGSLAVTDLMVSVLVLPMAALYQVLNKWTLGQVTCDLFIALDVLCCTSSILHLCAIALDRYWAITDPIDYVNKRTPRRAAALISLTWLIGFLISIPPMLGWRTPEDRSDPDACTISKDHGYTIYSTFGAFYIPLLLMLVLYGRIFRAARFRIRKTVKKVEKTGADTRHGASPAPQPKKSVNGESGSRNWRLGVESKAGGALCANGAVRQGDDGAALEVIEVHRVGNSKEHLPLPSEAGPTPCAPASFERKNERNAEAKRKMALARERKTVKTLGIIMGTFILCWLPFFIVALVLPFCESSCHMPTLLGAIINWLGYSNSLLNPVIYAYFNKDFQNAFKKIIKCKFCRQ

[8] = molecular target: T3, Alpha-2C adrenergic receptor (Homo sapiens, UniProt P18825); assay type: functional
T3 sequence (P18825 whole entry): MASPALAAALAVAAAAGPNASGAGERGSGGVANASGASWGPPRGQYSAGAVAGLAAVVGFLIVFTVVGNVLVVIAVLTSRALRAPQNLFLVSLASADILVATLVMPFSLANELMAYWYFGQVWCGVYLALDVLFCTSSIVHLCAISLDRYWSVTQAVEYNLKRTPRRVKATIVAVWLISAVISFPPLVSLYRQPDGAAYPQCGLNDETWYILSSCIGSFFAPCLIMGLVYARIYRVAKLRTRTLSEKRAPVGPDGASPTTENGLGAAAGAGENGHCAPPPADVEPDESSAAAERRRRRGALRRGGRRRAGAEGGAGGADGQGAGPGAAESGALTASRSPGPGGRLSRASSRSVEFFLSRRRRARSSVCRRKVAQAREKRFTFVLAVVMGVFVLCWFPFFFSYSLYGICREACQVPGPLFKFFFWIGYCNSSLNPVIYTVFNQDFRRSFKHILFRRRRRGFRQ

[9] = molecular target: Histamine H3 receptor (Homo sapiens, UniProt Q9Y5N1)
Histamine H3 receptor, sequence (Q9Y5N1 whole entry): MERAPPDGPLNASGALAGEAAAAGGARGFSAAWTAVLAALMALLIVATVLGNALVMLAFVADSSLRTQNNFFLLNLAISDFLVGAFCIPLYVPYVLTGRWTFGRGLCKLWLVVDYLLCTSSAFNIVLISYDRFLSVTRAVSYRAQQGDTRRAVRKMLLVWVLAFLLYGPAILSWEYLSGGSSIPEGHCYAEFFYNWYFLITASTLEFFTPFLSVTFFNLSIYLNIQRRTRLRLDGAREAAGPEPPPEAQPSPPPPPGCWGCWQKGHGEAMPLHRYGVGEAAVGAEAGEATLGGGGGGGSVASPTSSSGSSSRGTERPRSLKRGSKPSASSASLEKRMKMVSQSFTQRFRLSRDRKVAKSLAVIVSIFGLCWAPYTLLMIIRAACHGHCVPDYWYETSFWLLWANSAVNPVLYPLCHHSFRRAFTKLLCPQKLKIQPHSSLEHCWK

[10] = molecular target: Cannabinoid receptor 1 (Homo sapiens, UniProt P21554); assay type: functional, cell-based
Cannabinoid receptor 1, sequence (P21554 whole entry): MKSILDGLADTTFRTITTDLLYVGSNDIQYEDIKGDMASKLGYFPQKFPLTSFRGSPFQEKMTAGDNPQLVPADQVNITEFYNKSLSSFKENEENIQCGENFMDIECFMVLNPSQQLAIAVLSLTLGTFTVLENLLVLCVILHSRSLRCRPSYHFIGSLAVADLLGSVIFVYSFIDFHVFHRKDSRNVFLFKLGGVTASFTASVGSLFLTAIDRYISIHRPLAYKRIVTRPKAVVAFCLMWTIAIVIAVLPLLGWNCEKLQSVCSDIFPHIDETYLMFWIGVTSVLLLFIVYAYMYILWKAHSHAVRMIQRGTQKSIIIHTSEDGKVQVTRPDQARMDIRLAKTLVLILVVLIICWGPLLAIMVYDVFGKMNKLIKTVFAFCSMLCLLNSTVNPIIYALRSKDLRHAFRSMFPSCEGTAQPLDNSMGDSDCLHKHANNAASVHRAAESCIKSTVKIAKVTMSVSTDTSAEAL
Note: assay procedure not described here.

Adenosine receptor A2a, sequence (P29274 whole entry): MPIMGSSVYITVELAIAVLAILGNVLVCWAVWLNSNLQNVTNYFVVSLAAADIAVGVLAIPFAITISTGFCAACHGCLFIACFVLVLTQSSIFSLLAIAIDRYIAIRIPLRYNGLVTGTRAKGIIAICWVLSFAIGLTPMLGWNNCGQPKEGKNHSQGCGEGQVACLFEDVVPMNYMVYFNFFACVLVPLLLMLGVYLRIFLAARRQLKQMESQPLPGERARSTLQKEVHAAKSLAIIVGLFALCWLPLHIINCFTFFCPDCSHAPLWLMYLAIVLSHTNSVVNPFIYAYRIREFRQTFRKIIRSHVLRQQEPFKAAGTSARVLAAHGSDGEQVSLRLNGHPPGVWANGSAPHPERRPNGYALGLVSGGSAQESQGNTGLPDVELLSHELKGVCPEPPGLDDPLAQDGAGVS
Beta-2 adrenergic receptor, sequence (P07550 whole entry): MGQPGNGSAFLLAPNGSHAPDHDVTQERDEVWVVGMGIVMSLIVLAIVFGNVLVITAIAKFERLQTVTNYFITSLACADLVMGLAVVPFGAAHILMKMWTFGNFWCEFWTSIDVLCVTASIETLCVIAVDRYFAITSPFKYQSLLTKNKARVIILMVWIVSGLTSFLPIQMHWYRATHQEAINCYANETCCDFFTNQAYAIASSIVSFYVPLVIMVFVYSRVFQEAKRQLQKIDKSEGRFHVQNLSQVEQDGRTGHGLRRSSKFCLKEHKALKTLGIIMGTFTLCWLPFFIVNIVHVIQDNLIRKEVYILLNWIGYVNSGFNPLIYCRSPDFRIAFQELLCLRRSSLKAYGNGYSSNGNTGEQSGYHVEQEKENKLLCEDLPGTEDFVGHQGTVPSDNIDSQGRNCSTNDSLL

| SMILES | AC50 [1] | AC50 [2] | AC50 [3] | AC50 [4] | AC50 [5] | AC50 [6] | AC50 [7] | AC50 [8] | AC50 [9] | AC50 [10] |
| --- | --- | --- | --- | --- | --- | --- | --- | --- | --- | --- |
| CC(=N)N1CC[C@H](SC2=C(C(=O)O)N3C(=O)[C@H]([C@@H](C)O)[C@H]3C2)C1 | 300 µM | > 300 µM | > 300 µM | > 300 µM | > 300 µM | 270 µM | > 300 µM | > 300 µM | > 300 µM | > 300 µM |
| CC(/C=C1\SC(=S)N(CC(=O)O)C1=O)=C\c1ccccc1 | 26 µM | > 30 µM | 25 µM | > 30 µM | > 30 µM | 20 µM | 21 µM | 8.2 µM | > 30 µM | > 30 µM |
| CCc1oc2ccccc2c1C(=O)c1cc(Br)c(O)c(Br)c1 [BENZBROMARONE] | > 30 µM | > 30 µM | 2.65 µM | 1.53 µM | 9.4 µM | 26 µM | > 30 µM | 26 µM | > 30 µM | > 30 µM |
| CO/N=C(\C(=O)N[C@@H]1C(=O)N2C(C(=O)O)=C(COC(N)=O)CS[C@H]12)c1ccco1 [CEFUROXIME] | > 30 µM | > 30 µM | > 30 µM | > 30 µM | > 30 µM | > 30 µM | > 30 µM | > 30 µM | > 30 µM | > 30 µM |
| C[C@H]1Oc2cc(cnc2N)-c2c(nn(C)c2C#N)CN(C)C(=O)c2ccc(F)cc21 [LORLATINIB] | > 30 µM | > 30 µM | > 30 µM | 14 µM | > 30 µM | > 30 µM | 6.2 µM | > 30 µM | > 30 µM | > 30 µM |
| Cc1cnc(NC(=O)C2=C(O)c3ccccc3S(=O)(=O)N2C)s1 [MELOXICAM] | > 30 µM | > 30 µM | > 30 µM | > 10 µM | > 10 µM | > 10 µM | > 10 µM | > 10 µM | > 10 µM | > 30 µM |
| O=C1NC(=O)C(c2ccccc2)(c2ccccc2)N1 [PHENYTOIN] | > 30 µM | > 30 µM | > 30 µM | > 30 µM | > 30 µM | > 30 µM | > 30 µM | > 30 µM | > 30 µM | > 30 µM |

The remaining lines, values ahead:

| AC50 [1] | AC50 [2] | AC50 [3] | AC50 [4] | AC50 [5] | AC50 [6] | AC50 [7] | AC50 [8] | AC50 [9] | AC50 [10] | SMILES |
| --- | --- | --- | --- | --- | --- | --- | --- | --- | --- | --- |
| > 30 µM | > 30 µM | > 30 µM | 2 µM | > 30 µM | > 30 µM | > 30 µM | > 30 µM | > 30 µM | > 30 µM | COC(=O)[C@H](c1ccccc1Cl)N1CCc2sccc2C1 [CLOPIDOGREL] |
| > 30 µM | > 30 µM | 0.048 µM | > 30 µM | > 30 µM | > 30 µM | 0.56 µM | > 30 µM | > 30 µM | > 30 µM | CC1(C)O[C@@H]2C[C@H]3[C@@H]4C[C@H](F)C5=CC(=O)C=C[C@]5(C)[C@H]4[C@@H](O)C[C@]3(C)[C@]2(C(=O)CO)O1 [FLUNISOLIDE] |
| > 30 µM | > 30 µM | > 30 µM | > 30 µM | > 30 µM | > 30 µM | > 30 µM | > 30 µM | > 30 µM | > 30 µM | Nc1nc(O)c2ncn(COC(CO)CO)c2n1 [GANCICLOVIR] |
| > 30 µM | > 30 µM | > 30 µM | > 10 µM | > 30 µM | > 10 µM | > 10 µM | > 10 µM | > 10 µM | > 30 µM | COc1ccnc(C[S+]([O-])c2nc3ccc(OC(F)F)cc3[nH]2)c1OC (stereo not given) [PANTOPRAZOLE] |
| > 30 µM | > 30 µM | > 30 µM | > 30 µM | > 30 µM | > 30 µM | > 30 µM | > 30 µM | > 30 µM | > 30 µM | CCOc1cc(CC(=O)N[C@@H](CC(C)C)c2ccccc2N2CCCCC2)ccc1C(=O)O [REPAGLINIDE] |

Source: ChEMBL document CHEMBL5291721, “A preclinical secondary pharmacology resource illuminates target-adverse drug reaction associations of marketed drugs” (Nat Commun, 2023)
